Test systems include UO-31 renal; M14 melanoma; SNB-75 CNS; RXF 393 renal; MALME-3M melanoma; COLO 205 colon; HL-60(TB) leukemia; SF-268 CNS; SF-295 CNS; IGROV1 ovarian.
Common to all, as to assay: DTP human tumour cell line panel, 48 h

The structures appear in SMILES notation.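 Each compound was tested at five concentrations against cells in 96-well plates for 48 hours. GI50: concentration for 50% inhibition of growth. The concentration for full growth arrest is given as TGI.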

For `CC(=O)N1CC2Nc3ccccc3C2CC1CO` (stereo not given), the TGI in the assay with UO-31 renal, in the assay with M14 melanoma, in the assay on SNB-75 CNS, with RXF 393 renal, in the assay with MALME-3M melanoma and in the assay with COLO 205 colon was over 100 µM each time. The TGI in the assay on HL-60(TB) leukemia, in the assay with SF-268 CNS, in the assay on SF-295 CNS and in the assay with IGROV1 ovarian was over 100 µM throughout.
Regarding `CN1C(=O)CNC(=O)[C@H](NC(=O)c2nc3ccccc3cc2O)CSSC[C@H]1C(=O)NCCc1nc2ccccc2cc1O`, the GI50 (usually the concentration giving 50% growth inhibition) with UO-31 renal is 13.7 µM; in the assay on M14 melanoma, 1.03 µM; in the assay with SNB-75 CNS, 15 µM; in the assay with RXF 393 renal, 13.9 µM; with MALME-3M melanoma it was 15.8 µM; in the assay with COLO 205 colon, 2.94 µM. Also, the GI50 is 1.22 µM in the assay on HL-60(TB) leukemia, 4.19 µM in the assay on SF-268 CNS, 14.3 µM in the assay on SF-295 CNS and 32 µM in the assay with IGROV1 ovarian. Further, the TGI (usually the concentration giving total growth inhibition) in the assay on UO-31 renal was found to be 46.1 µM; with M14 melanoma it was 35.4 µM; in the assay on SNB-75 CNS, 33.9 µM; in the assay on RXF 393 renal, 36 µM; in the assay on MALME-3M melanoma it was 44.1 µM; in the assay on COLO 205 colon, 12.7 µM. Further, the TGI in the assay on HL-60(TB) leukemia is 5.1 µM; in the assay with SF-268 CNS, 37.9 µM; in the assay on SF-295 CNS, over 100 µM; in the assay on IGROV1 ovarian, over 100 µM.

These data come from PubChem BioAssay (NCI).
